These results are taken from patent US11384078B2, “5,6-fused-bicyclic compounds and compositions for the treatment of parasitic diseases” (NOVARTIS AG, priority 2017, dated 2022).

Holding throughout (type): cell-based
Assay [1] has as its system L. donovani HU3 strain in mouse peritoneal macrophages. Nature of the assay: Assay for inhibition of parasitemia of Leishmania donovani in mouse macrophages (SYBR Green nuclei count, high-content imaging). The settings on record: Leishmania donovani, Peritoneal macrophage, L. donovani in mouse peritoneal macrophages; read-out: L. donovani in Mouse Macrophages EC50. In outline: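 Peritoneal macrophages from uninfected BALB/c mice were infected for 24 h with spleen-derived L. donovani HU3 (4×10^5 parasites per 2×10^4 macrophages), then cultured with compound for 5 days at 37° C, 5% CO2. After fixation and permeabilization, parasite nuclei were stained with SYBR Green and counted by high-content imaging.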

Assay [2] relates to Trypanosoma brucei brucei (Lister 427) strain. Description: Assay for growth inhibition against Trypanosoma brucei brucei (Cell TiterGlo ATP luminescence). The settings on record: Trypanosoma brucei, T. brucei brucei (Lister 427); read-out: T. Brucei (HAT) EC50. Put shortly: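 T. b. brucei Lister 427 grown in HMI-9 with 10% FBS and 10% serum plus, seeded at 10,000 parasites/mL with 10-point threefold compound dilutions in duplicate, 37 °C for 2 days. Viability read as ATP luminescence 30 min after Cell TiterGlo; IC50 versus untreated controls.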
A general note: ATP-based viability assays read luminescence as a measure of living cells.

Assay [3] concerns Trypanosoma cruzi amastigotes cultured in 3T3 fibroblast cells. Description: Assay for growth inhibition of kinetoplastid parasite Trypanosoma cruzi (beta-galactosidase Tulahuen strain, CPRG readout). The following applies: Trypanosoma cruzi, Fibroblast, T. cruzi amastigotes in 3T3 fibroblast cells; read-out: Buckner infectious T. cruzi EC50. Put shortly: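 3T3 fibroblasts (1,000 cells/well) plated overnight, treated with compound in DMSO, then infected with 10,000 Lac-Z-expressing Tulahuen trypomastigotes. After 6 days, 0.6 mM CPRG with 0.6% NP-40 added for 2 h at room temperature; absorbance gives relative intracellular amastigote numbers. Benznidazole and nifurtimox serve as positive controls.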

The test system of assay [4] is Leishmania donovani axenic amastigote. Nature of the assay: In vitro assay for growth inhibition of Leishmania donovani axenic amastigote (Cell TiterGlo luminescence). The following applies: Leishmania donovani, L. donovani axenic amastigotes in vitro; read-out: L. donovani amastigotes EC50. Put shortly: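 Axenic L. donovani amastigotes (9600/well) grown at 37 °C, 5% CO2 in supplemented RPMI 1640, pH 5.5, with compound added from DMSO. After two days, viability read by CellTiter-Glo luminescence against DMSO and control-compound wells.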

Consider `O=C(Nc1ccc(F)c(-n2cc3cc(C4CCN4)cnc3n2)c1)N1CC(F)C1` (stereo not shown) [Compound 264, N-{3-[5-(azetidin-2-yl)-2H-pyrazolo[3,4-b]pyridin-2-yl]-4-fluorophenyl}-3-fluoroazetidine-1-carboxamide], for which the EC50 was found to be 13700 nM in assay [1], 384 nM in assay [2], 480 nM in assay [3] and 357 nM in assay [4].

On to `CC1(C)CN(c2cnc3nn(-c4cc(NC(=O)N5CC(F)C5)ccc4F)cc3c2)C1` [Compound 255, N-{3-[5-(3,3-dimethylazetidin-1-yl)-2H-pyrazolo[3,4-b]pyridin-2-yl]-4-fluorophenyl}-3-fluoroazetidine-1-carboxamide], for which the EC50 amounted to 28 nM in assay [1], 5 nM in assay [2], 15 nM in assay [3] and 42 nM in assay [4].

Turning to `O=C(Nc1ccc(F)c(-n2cc3cc(N4CCC5(CCOCC5)C4)cnc3n2)c1)N1CC(F)C1` [Compound 244, 3-fluoro-N-[4-fluoro-3-(5-{8-oxa-2-azaspiro[4.5]decan-2-yl}-2H-pyrazolo[3,4-b]pyridin-2-yl)phenyl}azetidine-1-carboxamide], the EC50 came out at 21 nM in assay [1], 5 nM in assay [2], 14 nM in assay [3] and 550 nM in assay [4].

On to `CC(C)Nc1cnc2nn(-c3cc(NC(=O)N4CC(F)C4)ccc3F)cc2c1` [Compound 200, 3-fluoro-N-(4-fluoro-3-{5-[(propan-2-yl)amino]-2H-pyrazolo[3,4-b]pyridin-2-yl}phenyl)azetidine-1-carboxamide], for which the EC50 turned out to be 7 nM in assay [1], 5 nM in assay [2], 15 nM in assay [3] and 974 nM in assay [4].

Take `O=C(Nc1ccc(Cl)c(-n2cc3cc(-c4ccccn4)cnc3n2)c1)N1CC(F)C1` [Compound 283, N-{4-chloro-3-[5-(pyridin-2-yl)-2H-pyrazolo[3,4-b]pyridin-2-yl]phenyl}-3-fluoroazetidine-1-carboxamide]: the EC50 came to 19 nM in assay [1], 8 nM in assay [2], 5 nM in assay [3] and 7 nM in assay [4].

Turning to `O=C(Nc1ccc(F)c(-n2cc3cc(N4CC5(CC5)C4)cnc3n2)c1)[C@H]1C[C@@H]1F` (racemic) [Compound 272, (1R,2S)-N-[3-(5-{5-azaspiro[2.3]hexan-5-yl}-2H-pyrazolo[3,4-b]pyridin-2-yl]-4-fluorophenyl}-2-fluorocyclopropane-1-carboxamide], the 50% effective concentration (EC50) in assay [1] came to 85 nM; in assay [2], 351 nM; in assay [3] it was 114 nM; in assay [4], 131 nM.

For `CCCC(C)c1cnc2nn(-c3cc(NC(=O)N4CC(F)(F)C4)ccc3F)cc2c1` (stereo not shown) [Compound 34, 3,3-difluoro-N-{4-fluoro-3-[5-(pentan-2-yl)-2H-pyrazolo[3,4-b]pyridin-2-yl]phenyl}azetidine-1-carboxamide], the EC50 is 270 nM in assay [1], 150 nM in assay [2], 160 nM in assay [3] and 200 nM in assay [4].

For the compound `CCC(C)(C)c1cnc2nn(-c3cc(NC(=O)N4CC(F)C4)ccc3F)cc2c1` [Compound 24, 3-fluoro-N-{4-fluoro-3-[5-(2-methylbutan-2-yl)-2H-pyrazolo[3,4-b]pyridin-2-yl]phenyl}azetidine-1-carboxamide], the EC50 in assay [1] was found to be 1000 nM; in assay [2], 610 nM; in assay [3] it was 440 nM; in assay [4] it was 880 nM.

With `O=C(Nc1ccc(F)c(-n2cc3cc(C4CCOCC4)cnc3n2)c1)N1CC(F)C1` [Compound 148, 3-fluoro-N-{4-fluoro-3-[5-(oxan-4-yl)-2H-pyrazolo[3,4-b]pyridin-2-yl]phenyl}azetidine-1-carboxamide], the half-maximal effective concentration (EC50) in assay [1] was 12 nM; in assay [2], below 23 nM; in assay [3], 14 nM; in assay [4], 8.1 nM.

On to `CNc1cnc2nn(-c3cc(NC(=O)c4ccco4)ccc3F)cc2c1` [Compound 139, N-{4-fluoro-3-[5-(methylamino)-2H-pyrazolo[3,4-b]pyridin-2-yl]phenyl}furan-2-carboxamide], for which the 50% effective concentration (EC50) was 320 nM in assay [1], below 23 nM in assay [2], 3000 nM in assay [3] and 740 nM in assay [4].

`O=C(Nc1ccc(F)c(-n2cc3cc(-c4ncccc4F)cnc3n2)c1)N1CCC1` [Compound 313, N-{4-fluoro-3-[5-(3-fluoropyridin-2-yl)-2H-pyrazolo[3,4-b]pyridin-2-yl]phenyl}azetidine-1-carboxamide]: the EC50 in assay [1] turned out to be 2 nM; in assay [2] it was 5 nM; in assay [3] it was 1 nM; in assay [4], 1 nM.

With `CC(C)c1cnc2nn(-c3cc(NC(=O)c4ccc(C#N)cn4)ccc3F)cc2c1` [Compound 84, 5-cyano-N-{4-fluoro-3-[5-(propan-2-yl)-2H-pyrazolo[3,4-b]pyridin-2-yl]phenyl}pyridine-2-carboxamide], the EC50 was 6900 nM in assay [1], 2030 nM in assay [2], 3700 nM in assay [3] and 2400 nM in assay [4].

As to `O=C(Nc1ccc(F)c(-n2cc3cc(-c4ccccn4)cnc3n2)c1)[C@@H]1C[C@H]1F` (single isomer, unassigned) [Compound 256], the EC50 turned out to be 38 nM in assay [1], 27 nM in assay [2], 5 nM in assay [3] and 11 nM in assay [4].

On to `CCC(C)(C)c1cnc2nn(-c3cc(NC(=O)N4CC(F)(F)C4)ccc3F)cc2c1` [Compound 35, 3,3-difluoro-N-{4-fluoro-3-[5-(2-methylbutan-2-yl)-2H-pyrazolo[3,4-b]pyridin-2-yl]phenyl}azetidine-1-carboxamide], for which the EC50 was 520 nM in assay [1], 850 nM in assay [2], 380 nM in assay [3] and 580 nM in assay [4].

With `O=C(O)C1CCN(c2cnc3nn(-c4cc(NC(=O)N5CC(F)C5)ccc4F)cc3c2)CC1` [Compound 236, 1-(2-{2-fluoro-5-[(3-fluoroazetidine-1-carbonyl)amino]phenyl}-2H-pyrazolo[3,4-b]pyridin-5-yl)piperidine-4-carboxylic acid], the 50% effective concentration (EC50) is 29700 nM in assay [1], 1460 nM in assay [2], 20000 nM in assay [3] and 264 nM in assay [4].

Turning to `Cc1cnc(C(=O)Nc2ccc(F)c(-n3cc4cc(C(C)C)cnc4n3)c2)cn1` [Compound 65, N-{4-fluoro-3-[5-(propan-2-yl)-2H-pyrazolo[3,4-b]pyridin-2-yl]phenyl}-5-methylpyrazine-2-carboxamide], the EC50 in assay [1] came out at 1200 nM; in assay [2], 1400 nM; in assay [3] it was 960 nM; in assay [4] it was 1000 nM.

As for `CC(C)c1cnc2nn(-c3cc(NC(=O)C4CCC(C(F)(F)F)C4)ccc3F)cc2c1` (stereo not shown) [Compound 71, N-{4-fluoro-3-[5-(propan-2-yl)-2H-pyrazolo[3,4-b]pyridin-2-yl]phenyl}-3-(trifluoromethyl)cyclopentane-1-carboxamide], the EC50 in assay [1] was found to be 2800 nM; in assay [2], 3000 nM; in assay [3] it was 1400 nM; in assay [4], 4800 nM.

On to `CC(C)CNc1cnc2nn(-c3cc(NC(=O)N4CC(F)C4)ccc3F)cc2c1` [Compound 198, 3-fluoro-N-(4-fluoro-3-{5-[(2-methylpropyl)amino]-2H-pyrazolo[3,4-b]pyridin-2-yl}phenyl)azetidine-1-carboxamide], for which the half-maximal effective concentration (EC50) in assay [1] worked out at 49 nM; in assay [2], 5 nM; in assay [3] it was 23 nM; in assay [4], 546 nM.

Take `CC(C)OC(=O)Nc1cnc2nn(-c3cc(NC(=O)N4CC[C@@H](F)C4)ccc3F)cc2c1` [Compound 136]: the EC50 in assay [1] was 19 nM; in assay [2], below 23 nM; in assay [3] it was 170 nM; in assay [4], 30 nM.

For the compound `O=C(Nc1ccc(F)c(-n2cc3cc(N4CCCC4)cnc3n2)c1)N1CC[C@@H](F)C1` [Compound 134, (3R)-3-fluoro-N-{4-fluoro-3-[5-(pyrrolidin-1-yl)-2H-pyrazolo[3,4-b]pyridin-2-yl]phenyl}pyrrolidine-1-carboxamide], the EC50 was 5.4 nM in assay [1], below 23 nM in assay [2], 20 nM in assay [3] and 23 nM in assay [4].

Turning to `Cc1nc(C)c(C(=O)Nc2ccc(F)c(-n3cc4cc(C(C)C)cnc4n3)c2)o1` [Compound 351, N-(4-fluoro-3-(5-isopropyl-2H-pyrazolo[3,4-b]pyridin-2-yl)phenyl)-2,4-dimethyloxazole-5-carboxamide], the EC50 in assay [1] stood at 24 nM; in assay [2] it was 31 nM; in assay [3], 15 nM; in assay [4], 49 nM.

As for `CC(C)c1cnc2nn(-c3cc(NC(=O)C4CCCCO4)ccc3F)cc2c1` (stereo not shown) [Compound 80, N-{4-fluoro-3-[5-(propan-2-yl)-2H-pyrazolo[3,4-b]pyridin-2-yl]phenyl}oxane-2-carboxamide], the EC50 in assay [1] amounted to 410 nM; in assay [2] it was 170 nM; in assay [3], 92 nM; in assay [4] it was 410 nM.

As a reminder, the EC50 is the concentration that produces a half-maximal response.
